Test results: patent US9790203B2, “Inhibitor compounds of phosphodiesterase type 10A” (ABBVIE DEUTSCHLAND GMBH & CO. KG, priority 2012, dated 2017)

What was measured:
[1] = Microsomal half-life / microsomal clearance, human liver microsomes; assay type: in vitro ADME; settings: 0.5 μM test substance, 0.25 mg microsomal protein/ml, pH 7.4, 37° C.
Protocol: (§1) The metabolic stability of the compounds of the invention was determined in the following assay.
(§2) The test substances were incubated in a concentration of 0.5 μM as follows:
(§3) 0.5 μM test substance are preincubated together with liver microsomes from different species (from rat, human or other species) (0.25 mg of microsomal protein/ml) in 0.05 M potassium phosphate buffer of pH 7.4 in microtiter plates at 37° C. for 5 min. The reaction is started by adding NADPH (1 mg/mL). After 0, 5, 10, 15, 20 and 30 min, 50 μl aliquots are removed, and the reaction is immediately stopped and cooled with the same volume of acetonitrile. The samples are frozen until analyzed. The remaining concentration of undegraded test substance is determined by MSMS. The half-life (T1/2) is determined from the gradient of the signal of test substance/unit time plot, it being possible to calculate the half-life of the test substance, assuming first order kinetics, from the decrease in the concentration of the compound with time. The microsomal clearance (mCl) is calculated from mCl=ln 2/T1/2/(content of microsomal protein in mg/ml)×1000 [ml/min/mg] (modified from references: Di, The Society for Biomoleculur Screening, 2003, 453-462; Obach, DMD, 1999 vol 27. N 11, 1350-1359).

[2] = Microsomal half-life / microsomal clearance, rat liver microsomes; assay type: in vitro ADME; settings: 0.5 μM test substance, 0.25 mg microsomal protein/ml, pH 7.4, 37° C.
Protocol: as §1, §2, §3

PDE10A = PDE10A (Homo sapiens (Human), UniProt Q9Y233); assay: Measurement of PDE activity (HTRF cAMP kit, recombinant PDE); assay type: biochemical; settings: recombinant PDE10, 20 nM cyclic nucleotide substrate, 60 minutes at 29 C
Sequence of PDE10A (Q9Y233 whole entry, species assumed, canonical isoform): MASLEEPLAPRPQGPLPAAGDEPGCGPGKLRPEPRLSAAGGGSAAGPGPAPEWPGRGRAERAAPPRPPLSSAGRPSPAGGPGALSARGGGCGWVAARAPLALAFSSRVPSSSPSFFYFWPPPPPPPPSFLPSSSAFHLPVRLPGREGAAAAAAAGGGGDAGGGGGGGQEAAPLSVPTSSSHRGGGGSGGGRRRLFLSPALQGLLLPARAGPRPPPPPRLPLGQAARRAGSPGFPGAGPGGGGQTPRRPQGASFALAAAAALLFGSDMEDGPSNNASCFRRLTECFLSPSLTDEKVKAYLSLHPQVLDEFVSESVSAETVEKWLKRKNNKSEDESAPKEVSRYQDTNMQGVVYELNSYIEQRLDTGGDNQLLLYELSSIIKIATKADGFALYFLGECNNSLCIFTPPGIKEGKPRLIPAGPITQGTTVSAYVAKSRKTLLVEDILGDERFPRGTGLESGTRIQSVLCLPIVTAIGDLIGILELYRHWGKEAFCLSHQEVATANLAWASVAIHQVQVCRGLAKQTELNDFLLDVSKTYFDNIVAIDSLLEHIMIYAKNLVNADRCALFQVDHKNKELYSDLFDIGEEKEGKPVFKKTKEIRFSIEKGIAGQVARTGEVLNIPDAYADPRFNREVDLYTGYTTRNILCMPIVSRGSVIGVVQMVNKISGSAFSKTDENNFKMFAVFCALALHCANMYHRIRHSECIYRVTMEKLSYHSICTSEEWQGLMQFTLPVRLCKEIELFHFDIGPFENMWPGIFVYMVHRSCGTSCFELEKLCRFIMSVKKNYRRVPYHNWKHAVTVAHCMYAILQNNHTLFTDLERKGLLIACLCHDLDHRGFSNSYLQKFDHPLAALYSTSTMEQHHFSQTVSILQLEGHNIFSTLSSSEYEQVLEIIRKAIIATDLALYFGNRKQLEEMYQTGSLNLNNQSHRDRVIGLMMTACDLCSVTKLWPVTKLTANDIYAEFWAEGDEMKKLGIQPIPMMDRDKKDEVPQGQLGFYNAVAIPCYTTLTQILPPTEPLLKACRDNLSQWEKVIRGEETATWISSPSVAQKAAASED
Protocol: The recombinant PDE proteins are used in in vitro enzymatic reaction for measurement of PDE activity. These recombinant proteins, including PDE10A (human, rat and mouse PDE10) and isoforms of PDEs 1, 3, 4, and 5, were purchased from commercial vendor BPS Bioscience. The enzymatic activity of PDEs was determined by cAMP measurement kit from CisBio (IBA) using HTRF technology.
The PDE enzymatic reaction was carried out in assay buffer (20 mM Tris-HCl pH7.5, 10 mM MgCl2, 0.1% bovine serum albumin) containing enzyme and substrate. […] The substrate cyclic nucleotide (cAMP or cGMP) concentration used in the assay was 20 nM for PDE10, and 100 nM for other PDEs. The inhibitory effect of compound was determined by incubating various concentration of inhibitor in the enzymatic assay. […] Next, the compound at varying concentration was mixed with PDE enzyme. The reaction was initiated by addition of cyclic nucleotide substrate, and incubated for 60 minutes at 29 C. The reaction was stopped by addition of lysis buffer from assay kit. The cAMP-d2 and anti-cAMP cryptate in the lysis buffer detected the level of cAMP left from the PDE hydrolysis reaction. […] Thus, IC50 value of inhibitor can be obtained by plotting inhibitor concentration against PDE activity at that concentration.

rats [3] = settings: cited from earlier work
rats [4] = settings: cited from earlier work; remark: listed apart in the source
rats [5] = settings: cited from earlier work; remark: listed apart in the source

| Human mCl [1] | Rat mCl [2] | IC50 (PDE10A) | SMILES | reduction of amphetamine-induced hyperactivity (rats [3]) | hyperactivity induced by PCP (rats [4]) | catalepsy on its own (rats [5]; papaverine alone) | cataleptic effect of the D2 receptor antagonist haloperidol (rats [5]; with haloperidol) |
| --- | --- | --- | --- | --- | --- | --- | --- |
| ++ (<100 μl min^−1 mg^−1) | ++ (<100 μl min^−1 mg^−1) | 0.2 to 0.5 µM | Cc1cccc(C#Cc2ccc(-c3nn(C)cc3-c3cccnc3)cc2)n1.O=C(O)C(F)(F)F [Example 29, 2-methyl-6-[2-[4-[1-methyl-4-(3-pyridyl)pyrazol-3-yl]phenyl]ethynyl]pyridine; 2,2,2-trifluoroacetic acid] | – | – | – | – |
| ++ (<100 μl min^−1 mg^−1) | + (100-220 μl min^−1 mg^−1) | < 0.1 µM | COc1cc(-c2nn(C)cc2-c2ccncc2)ccc1C#Cc1cccc(C)n1.O=C(O)C(F)(F)F [Example 32, 2-[2-[2-methoxy-4-[1-methyl-4-(4-pyridyl)pyrazol-3-yl]phenyl]ethynyl]-6-methylpyridine; 2,2,2-trifluoroacetic acid] | – | – | – | – |
| – | – | – | COc1ccc(Cc2nccc3cc(OC)c(OC)cc23)cc1OC [Papaverine, papaverine] | insignificant | reduced hyperactivity | did not cause catalepsy on its own | potentiated the cataleptic effect |
